The values that follow come from patent US7875607B2, “7,8-bicycloakyl-chroman derivatives” (Ampere Life Sciences, Inc., priority 2004, dated 2011).

In general, EC50 refers to the concentration at which the effect is half-maximal. As usually defined, the IC50 is the concentration that gives 50% inhibition.

Assay [1] relates to dopaminergic neuronal cell line. The assay is described as follows: High glutamate-induced oxidative stress assay (HGOS). The conditions noted are these: Mus musculus; 30 mM glutamate, 16 hrs; read-out: EC50, protection against HGOS cell injury and cell death. It is filed as cell-based. The source says:
Protection against redox stress can be further evaluated in cell culture using high glutamate induced oxidative stress (HGOS) in mouse dopaminergic cell lines. The cytotoxic effect of glutamate is not due to excitotoxicity, as this cell line is devoid of inotropic glutamate receptors. Rather, the glutamate-induced toxicity of dopaminergic cells is associated with an inhibition of cystine transport which subsequently leads to depletion of intracellular glutathione (GSH) levels (Murphy T. H., et al. Neuron 2, 1547-1558, 1989), activation of neuronal 12-lipoxygenase (Li, Y. et al., Neuron 19, 453-463, 1997), increased ROS production (Tan S. et al., J. Cell Biol. 141, 1423-1432, 1998) and elevated intracellular Ca^2+ (Li, Y. et al., see supra). Some molecules were measured for their ability to protect cells against glutamate-induced stress and the assay is detailed in Examples.
This procedure was used to induce high glutamate-induced oxidative stress (HGOS) in a dopaminergic neuronal cell line. Using this assay the potency and efficacy of test articles against HGOS neuronal cell injury and cell death was established in a high throughput manner.
The cells were seeded into 96-well plates at a density of 2000 per well and left to grow for 72 hours in a 33° C. incubator with 5% CO2 in air atmosphere. The passage number of the cells for each assay experiment were no later than p11 in order to minimize experimental variation.
All compounds were dissolved in DMEM-No Glu containing 1 mM glucose, 30 mM glutamate and 1×Pen/Strep. DMEM-No Glu with 1 mM glucose and 1×P/S was used as the negative control, DMEM-No Glucose with 1 mM glucose, […] was used as a positive control and 100 μM Glutathione was added to the positive control as a standard. All of the procedures for this involving the making and dilution of compounds were performed using aseptic conditions and with minimal light.
The plates were removed from the incubator and examined under the microscope for morphological appearance and density. Using an aseptic technique and an 8-channel aspirator the media was carefully removed from the cells and replaced with 200 μl of 1×HBSS. This was done as quickly as possible to prevent the cells drying out. The plates were then placed in the humidified 37° C. incubators of the Biomek 2000 Side Loader. Four plates were washed at a time so as to minimize the time that the cells were sitting in 1×HBSS prior to addition of the compound test solution.
The Beckman Biomek workstations were used to load the compounds and controls from the mother plates onto the cell plates that were prewashed with HBSS under sterile conditions. The plates were incubated in the upper HTS incubator at 37° C. in 5% CO2 for exactly 16 hrs. The following day, using the Beckman Biomek workstations, the plates were removed from the incubator. Using Cell Tracker Addition, the compounds were removed from the plates, washed once with […] of pre-warmed 1×HBSS and then 100 μL of 5 μM Cell Tracker Green was added to each well. The plates were incubated at 37° C. for 30 min to allow the dye to enter the cell and be cleaved by the esterases. After washing the cells twice with prewarmed 1×HBSS, the plates were read with the 485 excitation; 538 emission filter pair on a Fluoroskan.

Assay [2] has as its system LTB4 production in heparinized whole blood. Briefly: Inhibition of LTB4 production in blood. The class given is cell-based, rat or mouse. The conditions noted are these: 20 μM A23187, read-out: EC50, protection against LTB4. The method, then: The blood was collected in heparinized tubes or syringes to prevent clotting. Heparin was at 20 USP U/ml. About 3-5 ml of blood was collected per rat and about 0.5-0.75 ml per mouse. This assay required 200 μl/data point, therefore a 96 well plate requires 20 ml.
The Calcium ionophore A23187 was prepared as a 10 mM stock solution in DMSO and the test agent is prepared in DMSO so that <1 μl DMSO will be added to the well
200 μl blood per well were added in a round bottom 96 well clear plastic 96 well plate followed by the test agent. After 10 minutes incubation at 37° C., 5 μl of Calcium ionophore A23187 for a final concentration of 20 μM were added and mixed, and further incubated for 30 min. After 1000×g centrifugation to pellet blood cells, 20 μl plasma was carefully removed.
20 μl plasma were added to 80 μl methanol to precipitate protein and mixed. This was further incubated 10 min. at room temperature and centrifuged at 1000×g to pellet protein.
Following manufacturer's instructions, the commercially available EIA kit was used to subsequently measure the LTB4 production in the samples. The LTB4 levels produced in the vehicle control sample were then compared to those in which the test compound had been added. From this a percent inhibition of LTB4 production by each concentration of test compound was calculated and the IC50 for inhibition of LTB4 production for each test compound was determined.

Assay [3] deals with T1, human recombinant 5-lipoxygenase (Homo sapiens, UniProt P09917).
T1 construct: purchased Cayman 60402
T1 sequence (P09917 1-674): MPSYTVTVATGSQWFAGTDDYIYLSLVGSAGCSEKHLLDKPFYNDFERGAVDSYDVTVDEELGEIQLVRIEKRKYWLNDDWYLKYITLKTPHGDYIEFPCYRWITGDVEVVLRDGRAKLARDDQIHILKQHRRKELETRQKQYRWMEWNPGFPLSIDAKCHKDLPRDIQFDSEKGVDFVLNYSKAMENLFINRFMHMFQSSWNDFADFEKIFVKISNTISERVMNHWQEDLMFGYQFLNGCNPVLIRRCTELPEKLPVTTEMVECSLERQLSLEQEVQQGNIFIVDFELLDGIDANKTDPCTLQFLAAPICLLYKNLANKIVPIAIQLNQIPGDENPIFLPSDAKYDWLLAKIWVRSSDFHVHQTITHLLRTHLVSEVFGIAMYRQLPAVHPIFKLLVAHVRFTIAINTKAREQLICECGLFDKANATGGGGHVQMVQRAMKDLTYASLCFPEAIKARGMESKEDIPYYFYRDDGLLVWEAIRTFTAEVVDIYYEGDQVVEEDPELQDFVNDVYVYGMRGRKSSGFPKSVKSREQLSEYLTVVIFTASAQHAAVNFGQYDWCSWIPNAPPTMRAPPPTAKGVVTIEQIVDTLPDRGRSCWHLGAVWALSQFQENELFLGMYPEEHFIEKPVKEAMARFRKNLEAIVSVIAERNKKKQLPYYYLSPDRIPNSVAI
Briefly: 5-Lipoxygenase enzyme assay. The settings on record: 70 μM arachidonic acid, pH 7.4. It is filed as biochemical. The procedure: This procedure was used for measuring the enzymatic activity of human recombinant 5-lipoxygenase using a […] method based on the ferric oxidation of xylenol orange.
Human recombinant 5-lipoxygenase (Cayman Cat # 60402) was used in this assay. The test compound and/or vehicle was added to 0.5U 5-lipoxygenase in 50 mM Tris-HCl buffer, pH 7.4. The reaction was initiated by addition of 70 μM arachidonic acid in Tris-HCl buffer, pH 7.4, and terminated after a 10 minute incubation at room temperature by addition of FOX reagent (25 mM sulphuric acid, 100 μM xylenol orange, 100 μM iron (II) sulphate, methanol:water 9:1). The yellow color of acidified xylenol orange was converted to a blue color by the lipid hydroperoxide-mediated oxidation of Fe^2+ ions and the interaction of the resulting Fe^3+ ions with the dye. The complex was allowed to form during a 1 hour incubation at room temperature with shaking. Absorbance of the Fe^3+ complex was then measured at […] using a spectrophotometer.
Negative controls contained enzyme during the incubation step but substrate was not added until after the FOX reagent.
Compounds were screened at 5 concentrations in triplicate starting at 10 μM

The subject of assay [4] is ELAM (E-selectin) expression in endothelial cells. The assay is described as follows: Cell-ELAM assay. The settings on record: 10 μg/ml LPS and 100 pg/ml IL-1β, 6 hours. The class given is cell-based. The text has this:
In vitro cell-based assays for inflammation are well known in the art, for example e-selectin (also named Endothelial Leukocyte Adhesion Molecule or ELAM) or C-reactive protein (CRP). The ELAM assay measures in vitro activity of the test compounds in reducing expression of ELAM in activated endothelial cells. Briefly, endothelial cells are […] by adding known activators such as lipopolysaccharides, TNF or IL-1, alone or in some combination. Activated cells produce ELAM, which can be measured using, for example, an E-selectin monoclonal antibody-based ELISA assay. Similarly the CRP assay measures in vitro activity of test compounds in reducing expression of CRP in Human Hep3B epithelial cells. The activated cells produce CRP, which can be measured with a CRP ELISA assay.
Endothelial-Leukocyte Adhesion Molecule (ELAM), also known as E-selectin, was expressed on the surface of endothelial cells. In this assay, lipopolysaccharide (LPS) and IL-1β were used to stimulate the expression of ELAM; test agents were tested for their abilities to reduce this expression, in accordance with studies showing that reduction of leukocyte adhesion to endothelial cell surface was associated with decreased cellular damage (e.g., Takada, M., Et al., Transplantation 64: 1520-25, 1997; Steinberg, J. B., et al., J. Heart Lung Trans. 13:306-313, 1994).
Endothelial cells may be selected from any of a number of sources and cultured according to methods known in the art; including, for example, coronary artery endothelial cells, human brain microvascular endothelial cells (HBMEC; Hess, D. C., et al., Neurosci. Lett. 213(1): 37-40, 1996), or lung endothelial cells. Cells were conveniently cultured in 96-well plates. Cells were stimulated by adding a solution to each well containing 10 μg/ml LPS and 100 pg/ml IL-1β for 6 hours in the presence of test agent (specific concentrations and time may be adjusted depending on the cell type) Treatment buffer was removed and replaced with pre-warmed Fixing Solution® (100 μl/well) for 25 minutes at room temperature. Cells were then washed 3×, then incubated with Blocking Buffer (PBS+2% FBS) for 25 minutes at room temperature. Blocking Buffer containing Monoclonal E-Selectin Antibody (1:750, Sigma Catalog # S-9555) was added to each well. Plates were sealed and stored at 4° overnight. Plates were washed 4× with 160 μL Blocking Buffer per well. Second Antibody-HRP diluted 1:5000 in Blocking Buffer was then added (100 μL/well), and plates were incubated at room temperature (protected from light) for two hours. Plates were then washed 4× with Blocking Buffer before addition of 100 μL of ABTS Substrate solution at room temperature (Zymed, Catalog # 00-2024). Wells were allowed to develop for 35 minutes, before measurement at 402 nm in a Fluoroskan® Reader with shake program for 10 seconds. Positive results were recorded as a decrease in ELAM concentration in tested wells, as compared to control wells.

Assay [5] relates to LTB4 release from MPRO cell line. Briefly: LTB4-cell assay. The conditions noted are these: Mus musculus; differentiated MPRO cells, 1 μM A23187, 1 hour; read-out: EC50, inhibition of LTB4. It is filed as cell-based. The method, then: This procedure was used for measuring the release of the leukotriene LTB4 from a neutrophil cell line using a competitive ELISA technique.
A mouse promyelocytic cell line (MPRO) was used in this assay. These cells are committed immature neutrophils that can be differentiated into mature neutrophils by treatment with 10 μM all-trans retinoic acid for 72 hours
Following 72 hours of differentiation, cells were stimulated with 1 μM of a calcium ionophore (A23187) in the presence or absence of test compound or vehicle for 1 hour at 37° C. After this time, supernatant was removed from the cells and the LTB4 levels were determined following manufacturer's instructions, using a Leukotriene B4 EIA kit from Cayman (Cat # 520111)
The negative controls were media samples from differentiated but unstimulated cells.
The compounds were screened at 5 concentrations in quadruplicate starting at 10 μM

Take `CC1(C)CCc2c(Br)c(O)c3c(c2O1)C1CCC3CC1` [5-Bromo-2,2-dimethyl-3,4,7,8,9,10-hexahydro-7,10-ethano-2H-benzo[h]chromen-6-ol]: the figures for the EC50 in assay [1] and in assay [2] were no more than 1 µM and no more than 10 µM, respectively. Moreover, in assay [3], the 50% inhibitory concentration (IC50) was no more than 5 µM.

As for `CC(C)=CCc1c(O)c2c(c3c1CCC(C)(C)O3)C1C=CC2CC1` (stereo not shown) [2,2-Dimethyl-5-(3-methyl-but-2-enyl)-3,4,7,10-tetrahydro-7,10-ethano-2H-benzo[h]chromen-6-ol], the values for the EC50 in assay [1] and in assay [4] were no more than 1 µM and no more than 30 µM, respectively. In addition, the 50% inhibitory concentration (IC50) in assay [3] is no more than 5 µM.

Consider `CC1(C)CCc2c(Br)c(O)c3c(c2O1)C1CCC3C1` (stereo not shown) [5-Bromo-2,2-dimethyl-3,4,7,8,9,10-hexahydro-7,10-methano-2H-benzo[h]chromen-6-ol], for which the EC50 was no more than 1 µM in assay [1] and no more than 30 µM in assay [4].

Consider `CC1(CCCSc2nc3ccccc3s2)CCc2cc(O)c3c(c2O1)C1CCC3C1` (stereo not shown) [2-[3-(Benzothiazol-2-ylsulfanyl)-propyl]-2-methyl-3,4,7,8,9,10-hexahydro-7,10-methano-2H-benzo[h]chromen-6-ol], for which the EC50 in assay [1] is no more than 1 µM; in assay [4] it was no more than 30 µM.

As for `CC1(CCCCl)CCc2cc(O)c3c(c2O1)C1CCC3CC1` (stereo not shown) [2-(3-Chloro-propyl)-2-methyl-3,4,7,8,9,10-hexahydro-7,10-ethano-2H-benzo[h]chromen-6-ol], the EC50 was no more than 1 µM in assay [1], no more than 10 µM in assay [2] and no more than 5 µM in assay [5].

As to `CC1(CCCl)CCc2cc(O)c3c(c2O1)C1CCC3C1` (stereo not shown) [2-(2-Chloro-ethyl)-2-methyl-3,4,7,8,9,10-hexahydro-7,10-methano-2H-benzo[h]chromen-6-ol], the EC50 in assay [1] is no more than 1 µM; in assay [4], no more than 30 µM.

`Cc1c(O)c2c(c3c1CCC(C)(CCCCl)O3)C1CCC2CC1` (stereo not shown) [2-(3-Chloro-propyl)-2,5-dimethyl-3,4,7,8,9,10-hexahydro-7,10-ethano-2H-benzo[h]chromen-6-ol]: the concentration giving a half-maximal response (EC50) was no more than 1 µM in assay [1] and no more than 10 µM in assay [2]. In addition, the 50% inhibitory concentration (IC50) in assay [3] is no more than 5 µM.

In the case of `CC1(C)CCc2cc(O)c3c(c2O1)C1C=CC3C1` (stereo not shown) [2,2-Dimethyl-3,4,7,10-tetrahydro-7,10-methano-2H-benzo[h]chromen-6-ol], the EC50 is no more than 1 µM in assay [1], no more than 10 µM in assay [2] and no more than 5 µM in assay [5]. Besides, the IC50 in assay [3] was no more than 5 µM.
